Counter-ions that a name gives are not always drawn. Like-named read-outs stand apart in the source and are kept apart here.
Legend:
[1] = system: primary cortico-hippocampal neuron cultures; test: MTT in primary screening
[2] = system: Aβ1-42; test: Aβ1-42 content in conditioned medium of primary cortico-hippocampal neuron cultures from Tg2576 mice (ELISA; primary and secondary dose-response screening); assay type: cell-based, mouse; conditions: for Ab1-42 (% of ctl) / activity at 100 µM: drug 100 μM; for activity at 100 µM: Mus musculus, Neuron, 24 h, read-out: Ab1-42 (% of ctl); for reducing Aβ1-42: <85% of ctl
Summary of the method: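 Primary cortico-hippocampal neurons from embryonic Tg2576 mouse brain were seeded on poly-D-lysine-coated 96-well plates at 1.0×10^5 cells per well in serum-free Neurobasal medium with 2% B27, 0.5 mM L-glutamine and 1% penicillin-streptomycin. For primary screening, duplicate wells received 100 μM drug (1% DMSO final). Vehicle-treated cultures served as controls, and Aβ1-42 in conditioned medium was measured by commercial ELISA.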

[3] = system: Aβ1-40; test: Aβ1-40 content in conditioned medium of primary cortico-hippocampal neuron cultures from Tg2576 mice (ELISA; primary and secondary dose-response screening); assay type: cell-based, mouse; conditions: for Ab1-40 (% of ctl) / activity at 100 µM: drug 100 μM; for reduced Aβ1-40: <85% of ctl; for activity at 100 µM: Mus musculus, 24 h, read-out: Ab1-40 (% of ctl)
Summary of the method: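 Primary cortico-hippocampal neurons from embryonic Tg2576 mice were plated at 1.0×10^5 cells per well on poly-D-lysine-coated 96-well plates in Neurobasal with 2% B27, 0.5 mM L-glutamine and 1% penicillin-streptomycin. Cultures received drug in 1% DMSO, and Aβ1-40 in the conditioned medium was measured by BioSource ELISA 24 hours after treatment, relative to vehicle controls.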

[4] = system: Aβ1-42; test: Aβ1-42 content in conditioned medium of primary cortico-hippocampal neuron cultures from Tg2576 mice (ELISA; primary and secondary dose-response screening); assay type: cell-based, mouse
[5] = system: primary cortico-hippocampal neuron cultures; test: lactate dehydrogenase (LDH) activity assay in parallel neuron cultures
[6] = Primary Screening, table sorted by Aβ1-40
[7] = primary screening, table sorted by Aβ1-42
[8] = primary screening, Tg2576 neuron cultures, table sorted by Aβ1-42
[9] = Neuron, Primary Screening, table sorted by Aβ1-40
[10] = Neuron, primary screening, Tg2576 neuron cultures, table sorted by Aβ1-42

Row | Compound | MTT (% of ctl) [1, 6] | MTT (% of ctl) [1, 7] | Ab1-42 (% of ctl) [2, 6] | Ab1-42 (% of ctl) [2, 8] | Ab1-40 (% of ctl) [3, 6] | reduced Aβ1-40 ([3]; primary screening) | Ab1-40 (% of ctl) [3, 8] | EC50 ([3]; secondary dose-response screening 0.01-100 μM, 24 hours, read-out: EC50 (molar) Aβ1-40) [µM] | EC50 (molar) Aβ1-42 ([4]; secondary dose-response screening 0.01-100 μM, 24 hours) | LDH (% of ctl) [5, 6] | LDH at E-5M % of change ([5]; drug at E-5M) [%] | LDH (% of ctl) [5, 7] | activity at 100 µM [2, 6] [%] | activity at 100 µM [2, 8] [%] | activity at 100 µM [3, 9] [%] | activity at 100 µM [3, 10] [%] | reducing Aβ1-42 ([2]; primary screening) | activity at 100 µM [3, 8] [%] | activity at 100 µM ([4]; Mus musculus, 24 h, primary screening, drug 100 μM, Tg2576 neuron cultures, table sorted by Aβ1-42, read-out: Ab1-42 (% of ctl)) [%]
1 | CC[C@@H](C)C(=O)O[C@H]1[C@H](O)[C@H]2[C@@H](CN3C[C@@H](C)CC[C@H]3[C@@]2(C)O)[C@@H]2C[C@]34O[C@]5(O)[C@@H](OC(=O)[C@](C)(O)[C@@H](C)O)CC[C@@]3(C)[C@@H]5[C@@H](OC(C)=O)[C@@H](OC(C)=O)[C@H]4[C@@]21O (stereo in doubt) [Protoveratrine B] | 58.5 % of ctl | 58.5 % of ctl | 93.3 % of ctl | 93.3 % of ctl | 61.8 % of ctl | reduced Aβ1-40 | 61.8 % of ctl | 6.73 | no fit | 729.8 % of ctl | −2.5 | 729.8 % of ctl |  |  |  |  |  |  | 
2 | CC(C)(C)NC[C@H](O)COc1nsnc1N1CCOCC1 [Timolol Maleate] | 99.2 % of ctl | 99.2 % of ctl |  |  |  |  |  |  |  | 104.4 % of ctl |  | 104.4 % of ctl | 104 | 104 | 101 | 101 |  |  | 
3 | CCOC(=O)NNc1nncc2ccccc12 [Todralazine Hydrochloride] | 99.5 % of ctl | 99.5 % of ctl |  |  |  |  |  |  |  | 100.6 % of ctl |  | 100.6 % of ctl | 110 | 110 | 105 | 105 |  |  | 
4 | c1ccc(CC2=NCCN2)cc1 [Tolazoline Hydrochloride] | 97.5 % of ctl | 97.5 % of ctl |  |  |  |  |  |  |  | 112.5 % of ctl |  | 112.5 % of ctl | 99.6 | 99.6 | 90.8 | 90.8 |  |  | 
5 | Cc1cccc(Nc2ccncc2S(=O)(=O)NC(=O)NC(C)C)c1 [Torsemide] | 99.2 % of ctl | 99.2 % of ctl |  |  |  |  |  |  |  | 107.5 % of ctl |  | 107.5 % of ctl | 104 | 104 | 107 | 107 |  |  | 
6 | CCOC(=O)[C@H](CCc1ccccc1)N[C@@H](C)C(=O)N1[C@H](C(=O)O)C[C@H]2CCCC[C@@H]21 [Trandolapril] | 91.5 % of ctl | 91.5 % of ctl |  |  |  |  |  |  |  | 95.5 % of ctl |  | 95.5 % of ctl | 111 | 111 | 137 | 137 |  |  | 
7 | NC[C@H]1CC[C@H](C(=O)O)CC1 [Tranexamic Acid] | 96.8 % of ctl | 96.8 % of ctl |  |  |  | reduced Aβ1-40 |  |  |  | 112.8 % of ctl |  | 112.8 % of ctl | 53.9 | 53.9 | 84.9 | 84.9 | useful in reducing Aβ1-42 |  | 
8 | Nc1nc(N)c2nc(-c3ccccc3)c(N)nc2n1 [Triamterene] | 93.8 % of ctl | 93.8 % of ctl |  |  |  |  |  |  |  | 103.3 % of ctl |  | 103.3 % of ctl | 64.2 | 64.2 | 85.1 | 85.1 | useful in reducing Aβ1-42 |  | 
9 | NS(=O)(=O)c1cc2c(cc1Cl)NC(C(Cl)Cl)NS2(=O)=O (centres unmarked) [Trichlormethiazide] | 105.5 % of ctl | 105.5 % of ctl |  |  |  |  |  |  |  | 102.6 % of ctl |  | 102.6 % of ctl | 84.5 | 84.5 | 89.3 | 89.3 | useful in reducing Aβ1-42 |  | 
10 | COc1ccccc1N1CCN(CCCNc2cc(=O)n(C)c(=O)n2C)CC1 [Urapidil] | 103.4 % of ctl | 103.4 % of ctl |  |  |  |  |  |  |  | 97.1 % of ctl |  | 97.1 % of ctl | 114 | 114 | 96.4 | 96.4 |  |  | 
11 | COc1ccc(CCN(C)CCCC(C#N)(c2ccc(OC)c(OC)c2)C(C)C)cc1OC (centres unmarked) [Verapamil] |  |  | 101.1 % of ctl |  | 70.9 % of ctl | reduced Aβ1-40 |  |  |  | 92.5 % of ctl |  | 92.5 % of ctl |  |  |  |  |  | 70.9 | 101
12 | CC[C@]12CCCN3CCc4c(n(c5ccccc45)[C@@](O)(C(=O)OC)C1)[C@@H]32 [Vincamine] | 98.5 % of ctl | 98.5 % of ctl |  |  |  |  |  |  |  | 96.4 % of ctl |  | 96.4 % of ctl | 104 | 104 | 99.1 | 99.1 |  |  | 
13 | CCOC(=O)C1=C[C@]2(CC)CCCN3CCc4c(n1c1ccccc41)[C@@H]32 [Vinpocetine] | 87.7 % of ctl | 87.7 % of ctl |  |  |  | reduced Aβ1-40 |  |  |  | 111.3 % of ctl |  | 111.3 % of ctl | 105 | 105 | 60.4 | 60.4 |  |  | 
14 | CC(=O)CC(c1ccccc1)c1c(O)c2ccccc2oc1=O (centres unmarked) [Warfarin] | 100.1 % of ctl | 100.1 % of ctl |  |  |  |  |  |  |  | 106.6 % of ctl |  | 106.6 % of ctl | 107 | 107 | 89.4 | 89.4 |  |  | 
15 | Phenylbutyrate Sodium | 70.2 % of ctl | 70.2 % of ctl | 86.6 % of ctl | 86.6 % of ctl | 102.1 % of ctl |  | 102.1 % of ctl |  |  | 192.3 % of ctl |  | 192.3 % of ctl |  |  |  |  |  |  | 

From patent publication US20100029654A1, “CARDIOVASCULAR COMPOSITIONS AND USE OF THE SAME FOR THE TREATMENT OF ALZHEIMER'S DISEASE” (MOUNT SINAI SCHOOL OF MEDICINE, priority 2006, published 2010)
